Data reported in PubChem BioAssay AID248 (DTP/NCI, 2004).
Values joined by “and” are separate entries in the source; they are usually repeats but may differ in a detail not shown here. Identical values can stand only once. Toxic doses and inconclusive results are not listed. No stated cut-off is given here; in the data, active means T/C of 150% or more; inactive means T/C below 125%.

System: L1210 leukemia ip in BDF1 mice, survival T/C
Assay: NCI In Vivo Anticancer Drug Screen. Data for tumor model L1210 Leukemia (intraperitoneal) in B6D2F1 (BDF1) mice
Conditions: endpoint: mean survival time, higher = longer survival
In short: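 Read-out is survival time, reported as the treated-group measurement over the vehicle-control measurement.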

[1] = dose: 25.0 mg/kg/injection, schedule: Q01DX009 (ip), vehicle: saline
[2] = dose: 50.0 mg/kg/injection, schedule: Q01DX009 (ip), vehicle: saline
[3] = dose: 100.0 mg/kg/injection, schedule: Q01DX009 (ip), vehicle: saline
[4] = dose: 200.0 mg/kg/injection, schedule: Q01DX009 (ip), vehicle: saline
[5] = dose: 400.0 mg/kg/injection, schedule: Q01DX009 (ip), vehicle: saline
[6] = dose: 100.0 mg/kg/injection, schedule: Q01DX001 (ip), vehicle: Klucel (hydroxypropylcellulose) (HPC)
[7] = dose: 200.0 mg/kg/injection, schedule: Q01DX001 (ip), vehicle: Klucel (hydroxypropylcellulose) (HPC)
[8] = dose: 400.0 mg/kg/injection, schedule: Q01DX001 (ip), vehicle: Klucel (hydroxypropylcellulose) (HPC)
[9] = dose: 100.0 mg/kg/injection, schedule: Q04DX003 (ip), vehicle: saline
[10] = dose: 200.0 mg/kg/injection, schedule: Q04DX003 (ip), vehicle: saline
[11] = dose: 100.0 mg/kg/injection, schedule: Q01DX009 (ip), vehicle: saline with Tween-80
[12] = dose: 200.0 mg/kg/injection, schedule: Q01DX009 (ip), vehicle: saline with Tween-80
[13] = dose: 100.0 mg/kg/injection, schedule: Q01DX001 (ip), vehicle: saline
[14] = dose: 200.0 mg/kg/injection, schedule: Q01DX001 (ip), vehicle: saline
[15] = dose: 400.0 mg/kg/injection, schedule: Q01DX001 (ip), vehicle: saline

Measured: T/C

CCOC(=O)c1ccc(Oc2ncc([N+](=O)[O-])s2)cc1
inactive: dose: 1.56 mg/kg/injection, schedule: Q01DX001 (ip), vehicle: saline 107 % of control | dose: 1.56 mg/kg/injection, schedule: Q04DX003 (ip), vehicle: saline 96 % of control | dose: 3.12 mg/kg/injection, schedule: Q01DX001 (ip), vehicle: saline 110 % of control | dose: 3.12 mg/kg/injection, schedule: Q04DX003 (ip), vehicle: saline 100 % of control | dose: 6.25 mg/kg/injection, schedule: Q01DX001 (ip), vehicle: saline 98 % of control | dose: 6.25 mg/kg/injection, schedule: Q04DX003 (ip), vehicle: saline 96 % of control | dose: 9.2 mg/kg/injection, schedule: Q04DX003 (ip), vehicle: saline 103 % of control | dose: 14.0 mg/kg/injection, schedule: Q04DX003 (ip), vehicle: saline 98 % of control | dose: 21.0 mg/kg/injection, schedule: Q04DX003 (ip), vehicle: saline 96 % of control | dose: 29.0 mg/kg/injection, schedule: Q04DX003 (ip), vehicle: saline with Tween-80 103 % of control | dose: 29.0 mg/kg/injection, schedule: Q04DX003 (ip), vehicle: saline 93 % of control | dose: 45.0 mg/kg/injection, schedule: Q04DX003 (ip), vehicle: saline 102 % of control | dose: 65.0 mg/kg/injection, schedule: Q04DX003 (ip), vehicle: saline with Tween-80 86 % of control

N=C(N)SCCCCSC(=N)N
inactive: [1] 92 % of control | [2] 97 % of control | [3] 94 % of control and 106 % of control

CN(Cc1cnc2nc(N)nc(N)c2n1)c1cc(Cl)c(C(=O)NC(CCC(=O)O)C(=O)O)cc1Cl (centres undefined)
inactive: dose: 6.25 mg/kg/injection, schedule: Q01DX009 (ip), vehicle: sodium bicarbonate 106 % of control | dose: 12.5 mg/kg/injection, schedule: Q01DX009 (ip), vehicle: sodium bicarbonate 115 % of control

CSCCO
inactive: [3] 89 % of control | dose: 100.0 mg/kg/injection, schedule: Q04DX003 (ip), vehicle: saline sonified 102 % of control | [4] 100 % of control | dose: 200.0 mg/kg/injection, schedule: Q04DX003 (ip), vehicle: saline sonified 116 % of control | [5] 96 % of control | dose: 400.0 mg/kg/injection, schedule: Q04DX003 (ip), vehicle: saline sonified 98 % of control

COC(=O)C(=O)c1c(-c2ccc[n+](Cc3ccccc3)c2)[nH]c2ccccc12
inactive: dose: 75.0 mg/kg/injection, schedule: Q01DX001 (ip), vehicle: saline 101 % of control | dose: 150.0 mg/kg/injection, schedule: Q01DX001 (ip), vehicle: saline 93 % of control

CCCCc1c(-c2ccccc2)nc(N)[nH]c1=O
inactive: [6] 103 % of control | [7] 102 % of control | [8] 104 % of control

O=C(/C=C/c1ccccc1)NC(=S)Nc1ncccn1
inactive: dose: 100.0 mg/kg/injection, schedule: Q01DX009 (ip), vehicle: carboxymethylcellulose (CMC) 93 % of control and 96 % of control | dose: 100.0 mg/kg/injection, schedule: Q04DX002 (ip), vehicle: carboxymethylcellulose (CMC) 96 % of control and 104 % of control | dose: 100.0 mg/kg/injection, schedule: Q04DX003 (ip), vehicle: carboxymethylcellulose (CMC) 94 % of control | dose: 200.0 mg/kg/injection, schedule: Q01DX009 (ip), vehicle: carboxymethylcellulose (CMC) 92 % of control and 96 % of control | dose: 200.0 mg/kg/injection, schedule: Q04DX002 (ip), vehicle: carboxymethylcellulose (CMC) 96 % of control and 98 % of control | dose: 200.0 mg/kg/injection, schedule: Q04DX003 (ip), vehicle: carboxymethylcellulose (CMC) 91 % of control | dose: 400.0 mg/kg/injection, schedule: Q01DX009 (ip), vehicle: carboxymethylcellulose (CMC) 96 % of control and 104 % of control | dose: 400.0 mg/kg/injection, schedule: Q04DX002 (ip), vehicle: carboxymethylcellulose (CMC) 96 % of control and 91 % of control

Nn1c(-c2ccccc2)c[n+]2ccccc12
inactive: dose: 75.0 mg/kg/injection, schedule: Q01DX001 (ip), vehicle: other 101 % of control | dose: 150.0 mg/kg/injection, schedule: Q01DX001 (ip), vehicle: other 97 % of control | dose: 300.0 mg/kg/injection, schedule: Q01DX001 (ip), vehicle: other 92 % of control

COc1cc(C(=O)OCCCN2CCOCC2)cc(OC)c1OC
inactive: [1] 107 % of control | dose: 25.0 mg/kg/injection, schedule: Q04DX003 (ip), vehicle: saline 106 % of control | [2] 92 % of control | dose: 50.0 mg/kg/injection, schedule: Q04DX003 (ip), vehicle: saline 101 % of control | [3] 92 % of control | [9] 98 % of control | [4] 105 % of control | [10] 98 % of control | [5] 100 % of control | dose: 400.0 mg/kg/injection, schedule: Q04DX003 (ip), vehicle: saline 95 % of control

CCCCCC(=O)OCCOC(=O)CCCCC
inactive: [11] 103 % of control | [12] 101 % of control | dose: 400.0 mg/kg/injection, schedule: Q01DX009 (ip), vehicle: saline with Tween-80 92 % of control

CCOC(=O)C(C)(C)C(=O)C(C)C
inactive: dose: 100.0 mg/kg/injection, schedule: Q04DX002 (ip), vehicle: Klucel (hydroxypropylcellulose) (HPC) 100 % of control | dose: 200.0 mg/kg/injection, schedule: Q04DX002 (ip), vehicle: Klucel (hydroxypropylcellulose) (HPC) 95 % of control | dose: 400.0 mg/kg/injection, schedule: Q04DX002 (ip), vehicle: Klucel (hydroxypropylcellulose) (HPC) 103 % of control

C1=C(N2CCOCC2)CCC(N2CCOCC2)=C1
inactive: [2] 108 % of control | [3] 95 % of control | [9] 98 % of control | [4] 95 % of control | [10] 95 % of control

CN=C(NC)c1ccc(NC(=O)/C=C/C(=O)Nc2ccc(C(=NC)NC)cc2)cc1
inactive: dose: 12.5 mg/kg/injection, schedule: Q01DX Z (ip), vehicle: carboxymethylcellulose (CMC) 97 % of control | dose: 25.0 mg/kg/injection, schedule: Q01DX Z (ip), vehicle: carboxymethylcellulose (CMC) 91 % of control | dose: 50.0 mg/kg/injection, schedule: Q01DX Z (ip), vehicle: carboxymethylcellulose (CMC) 99 % of control

CCCCCCC[CH2][Sn]([CH2]CCCCCCC)([NH]S(=O)(=O)c1ccc(C)cc1)[NH]S(=O)(=O)c1ccc(C)cc1
inactive: dose: 18.75 mg/kg/injection, schedule: Q01DX009 (ip), vehicle: saline sonified 102 % of control | dose: 37.5 mg/kg/injection, schedule: Q01DX009 (ip), vehicle: saline sonified 86 % of control | dose: 75.0 mg/kg/injection, schedule: Q04DX003 (ip), vehicle: Klucel (hydroxypropylcellulose) (HPC) 107 % of control

CCOC(=O)c1oc(C)nc1C
inactive: [6] 122 % of control | [7] 97 % of control | [8] 101 % of control

Cc1ccc(NC(=O)Nc2ccc(CNC(=O)COc3ccc(Cl)cc3C(=O)O)cc2)cc1S(=O)(=O)F
inactive: [13] 100 % of control | [14] 94 % of control | [15] 94 % of control

N=c1ccn(C(=O)C2=Cc3cc(Cl)ccc3OC2)cc1
inactive: [11] 92 % of control | [12] 102 % of control

Cc1ncc(C(N)=O)c2c1OC(C)(C)OC2
inactive: dose: 50.0 mg/kg/injection, schedule: Q01DX001 (ip), vehicle: saline 100 % of control | [13] 97 % of control | [14] 94 % of control | [15] 88 % of control
